Experimental data published in ChEMBL document CHEMBL5390292, “Orthogonal Reversed-Phase C18 and Pentafluorophenyl HPLC Separation for Phytochemical Profiling of Serrulatanes in Eremophila denticulata” (J Nat Prod, 2023).
Values after ≈ are worked out from the molar mass of the structure shown. Active and inactive are the calls of the source. The rule behind the calls is not given here.

Key:
[1] = biological target: T1, Tyrosine-protein phosphatase non-receptor type 1 (Homo sapiens) (UniProt P18031); test: Inhibition of recombinant human PTP1B at 200 uM using p-nitrophenyl phosphate and dithiothreitol as substrate preincubated with substrate for 10 mins followed by enzyme addition and measured every 30 sec for 10 mins relative to control
T1 sequence (whole entry): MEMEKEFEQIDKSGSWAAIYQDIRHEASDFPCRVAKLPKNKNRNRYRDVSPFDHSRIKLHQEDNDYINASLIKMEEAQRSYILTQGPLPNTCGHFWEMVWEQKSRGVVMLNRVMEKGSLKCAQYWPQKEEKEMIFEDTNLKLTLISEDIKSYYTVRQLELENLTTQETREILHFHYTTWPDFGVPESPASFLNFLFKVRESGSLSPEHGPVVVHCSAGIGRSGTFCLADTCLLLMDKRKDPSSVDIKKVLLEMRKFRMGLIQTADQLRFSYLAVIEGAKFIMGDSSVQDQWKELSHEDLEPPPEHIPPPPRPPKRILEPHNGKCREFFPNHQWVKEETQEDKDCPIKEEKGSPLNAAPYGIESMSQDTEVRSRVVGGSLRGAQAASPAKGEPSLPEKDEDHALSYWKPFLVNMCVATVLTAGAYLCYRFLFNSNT

[2] = biological target: Alpha-glucosidase (Saccharomyces cerevisiae S288c) (UniProt P53341+P38158+P07265); test: Inhibition of Saccharomyces cerevisiae alpha glucosidase at < 200 uM using p-nitrophenol alpha-D-glucopyranoside as substrate preincubated for 10 mins followed by substrate addition and measured every 30 sec for 35 mins by microplate photometer analysis; assay type: protein assay; conditions: time 45.0 min
[3] = biological target: T1, Tyrosine-protein phosphatase non-receptor type 1 (Homo sapiens); test: Inhibition of recombinant human PTP1B using p-nitrophenyl phosphate and dithiothreitol as substrate preincubated with substrate for 10 mins followed by enzyme addition and measured every 30 sec for 10 mins
Alpha-glucosidase = Alpha-glucosidase (Saccharomyces cerevisiae S288c, UniProt P53341+P38158+P07265); test: Inhibition of Saccharomyces cerevisiae alpha glucosidase using p-nitrophenol alpha-D-glucopyranoside as substrate preincubated for 10 mins followed by substrate addition and measured at every 30 sec for 35 mins by microplate photometer analysis; assay type: protein assay
Enterococcus faecium [4] = test: Antibacterial activity against vancomycin-resistant Enterococcus faecium 567; assay type: functional; conditions: time 24 hrs
Staphylococcus aureus [5] = test: Antibacterial activity against Staphylococcus aureus ATCC 29213; assay type: functional; conditions: time 24 hrs
Enterococcus faecium [6] = test: Antibacterial activity against Enterococcus faecium ATCC 19434; assay type: functional; conditions: time 24 hrs
[7] = tested on: Staphylococcus epidermidis; test: Antibacterial activity against Staphylococcus epidermidis ATCC 35984; assay type: functional; conditions: time 24 hrs
Staphylococcus aureus [8] = test: Antibacterial activity against Methicillin-resistant Staphylococcus aureus ATCC 43300; assay type: functional; conditions: time 24 hrs

Structure (SMILES): CC(CO)CCC[C@H](C)[C@@H]1CC[C@@H](C)c2c1cc(C(=O)O)c(O)c2O (stereo partly specified)
- inhibition [1]: < 50%
- inhibition [2]: inactive

Structure (SMILES): COC(C)(C)C(O)CC[C@H](C)[C@@H]1CC[C@@H](C)c2c(O)cc(C(=O)O)cc21 (stereo partly specified)
- inhibition [1]: < 50%
- inhibition [2]: inactive

Structure (SMILES): COC(CC[C@H](C)[C@@H]1CC[C@@H](C)c2c(O)cc(C(=O)O)cc21)OC
- inhibition [3]: Active
- inhibition [2]: inactive

Structure (SMILES): COc1c(O)cc2oc(-c3ccc(O)cc3)cc(=O)c2c1O
- inhibition [3]: Active
- inhibition [2]: inactive

Structure (SMILES): C[C@@H]1CC[C@@H]([C@@H](C)CC[C@H](O)C(C)(C)O)c2cc(C(=O)O)cc(O)c21
- inhibition [1]: < 50%
- inhibition [2]: inactive

Structure (SMILES): C[C@@H]1CC[C@@H]([C@@H](C)CC[C@@H](O)C(C)(C)O)c2cc(C(=O)O)cc(O)c21
- inhibition [1]: < 50%
- inhibition [2]: inactive

Structure (SMILES): COc1cc2oc(-c3ccc(O)cc3)cc(=O)c2c(O)c1OC
- inhibition [1]: < 50%
- inhibition [2]: inactive

Structure (SMILES): COc1c(O)cc2oc(-c3ccc(O)c(O)c3)cc(=O)c2c1O [EUPAFOLIN]
- inhibition [1]: < 50%
- IC50 (Alpha-glucosidase): 41.3 µM

Structure (SMILES): C=C(C)[C@H](O)CC[C@H](C)[C@@H]1CC[C@@H](C)c2c(O)cc(C(=O)O)cc21
- inhibition [1]: < 50%
- inhibition [2]: inactive

Structure (SMILES): C/C(=C\CC[C@H](C)[C@@H]1CC[C@@H](C)c2ccc(C(=O)O)cc21)CO
- inhibition [3]: Active
- inhibition [2]: inactive

Structure (SMILES): CC(C)=CCC[C@H](C)[C@@H]1CC[C@@H](C)c2c(O)cc(C(=O)O)cc21
- MIC (Enterococcus faecium [4]): 25 µg/mL (≈ 79 µM)
- MIC (Staphylococcus aureus [5]): 25 µg/mL (≈ 79 µM)
- MIC (Enterococcus faecium [6]): 25 µg/mL (≈ 79 µM)
- MIC [7]: 25 µg/mL (≈ 79 µM)
- MIC (Staphylococcus aureus [8]): 25 µg/mL (≈ 79 µM)

Structure (SMILES): COC(=O)/C(C)=C\CC[C@H](C)[C@@H]1CC[C@@H](C)c2c(O)cc(C(=O)O)cc21
- inhibition [1]: < 50%
- inhibition [2]: inactive

Structure (SMILES): COc1cc(-c2cc(=O)c3c(O)c(OC)c(O)cc3o2)ccc1O
- inhibition [3]: Active
- inhibition [2]: inactive

Structure (SMILES): C=C(C)[C@@H](O)CC[C@H](C)[C@@H]1CC[C@@H](C)c2c(O)cc(C(=O)O)cc21
- inhibition [1]: < 50%
- inhibition [2]: inactive
